{"source": "patent US9782424B2", "about": "“Synergistic combination comprising avermectins and a NSAID for tumor inhibition” (Ectin Research AB, priority 2011, dated 2017)", "key": {"[1]": {"test_system": "colorectal cell line HT29", "assay": "Morphology of cultured tumor cells, HT29", "assay_type": "cell-based, human", "procedure": "(§1) Commercially available human tumor cell lines were purchased from ATCC (ATCC/LGC-standards, Borás, Sweden). […] Briefly, ampoules of frozen cells were thawed by submerging into a 37° C. water bath for 45 s. […] With supernatant discarded, cell pellets were further resuspended with 5 ml complete medium into 25 cm^2 cell culture flasks (Cell+, Sarstedt, Nümbrecht, Germany). Tumor cells were cultured until sub-confluence and further sub-cultured with Trypsin (0.5%), EDTA (0.2%) solution (T4174, TE-10x, Sigma) in sterile sodium chloride. Culture media was changed two-three times a week. Culture flasks (Cell+, Sarstedt, Nümbrecht, Germany) and culture plates (Falcon/BD, Franklin Lakes, N.J., USA) were used for experimental set-ups. Cells were regularly monitored using an inverted microscope connected to a digital photo equipment (Axiovert 25 and Axiovision, Zeiss, Carl Zeiss AG, Germany) (FIG. 1). Described culture techniques and equipment have been used extensively in the laboratory\nThe effect of Ivermectin, selamectin, abamectin alone, or in combination with ketoconazole, albendazole, ibuprofen, diclofenac and celecoxib on the morphology of cultured human tumor cells was studied. The effect of ivermectin in the presence of increasing concentration of ivermectin was also investigated. […]"}, "[2]": {"test_system": "advanced urothelial cancer with extensive metastasis", "assay": "Case observation of a patient given ivermectin", "assay_type": "in vivo, human", "details": "middle age person, standard treatment dosage for Strongyloidiasis, no other medication", "from_the_text": "The present studies are based on an observation describing a middle age person suffering from an advanced urothelial cancer with extensive metastasis. Due to a tropical infection (Strongyloidiasis) this patient received the substance ivermectin as a standard treatment dosage.\nThe present studies are based on a case report describing a middle age person suffering from an advanced urothelial cancer with extensive metastasis. Due to a tropical infection this patient received the substance ivermectin. […] The reason for this is not known however a direct effect of the substance ivermectin could not be precluded."}, "[3]": {"test_system": "prostatic cell line (LNCaP)", "assay": "XTT-assay proliferation rate, prostatic cell line", "assay_type": "cell-based, human", "details": "for Proliferation rate compared to untreated control: LNCaP (Table 5)", "procedure": "as §1\nThe proliferation rates of the different human tumor cell lines were studied using a method based on the conversion of a sodium salt (XTT-assay, Sigma) into a stable orange color that could be analyzed in a spectrophotometer. […] The color change was measured using a 96-well plate reader with software to calculate the absorbance at 450 nm (V-max/Softmax Pro, Molecular Devices, USA).\nIncreasing concentrations of substance ivermectin was added with an 8-channel pipette (Titertek, Kem-En-Tec, Taastrup, Denmark) together with sterile pipette tips (Molecular Bioproducts, San Diego, Calif., USA). Cell cultures including active substances were incubated for 24 hours (and 96 hours). Untreated wells including culture medium only served as untreated controls. The XTT-assay substrate was added and after gentle agitation using a micro plate shaker, absorbencies at 450 and 650 nm were measured. Levels from medium were subtracted and compared with control wells, using culture medium only."}}, "note": "Entries after “also recorded” stand apart in the source; their conditions may differ."}
{"substance": "22,23-dihydroavermectin B1a+22,23-dihydroavermectin B1b [ivermectin]", "values": [{"measurement": "Effect on morphology", "setting": "[1]; ivermectin 100 μM", "value": "affected"}, {"measurement": "Morphological effects over the concentration series", "setting": "[1]; ivermectin 10e-4 to 10e-10 mol/L (FIG. 2)", "value": "not morphologically affected even at the highest concentration"}, {"measurement": "Clinical outcome of the urothelial cancer", "setting": "[2]", "value": "all the clinical signs of the urothelial cancer disappeared; also recorded: treated both the tropical infection and the urothelial cancer"}, {"measurement": "Proliferation rate compared to untreated control", "setting": "[3]; IVM 1 μmol/L alone", "value": "95.4 ± 0.6", "unit": "%"}, {"measurement": "Proliferation rate compared to untreated control", "setting": "[3]; IVM 10 μmol/L alone", "value": "106.4±2.2", "unit": "%"}, {"measurement": "Proliferation rate compared to untreated control", "setting": "[3]; IVM 10 μmol/L alone, listed as IVM", "value": "106.4 ± 2.2", "unit": "%"}, {"measurement": "Proliferation rate compared to untreated control", "setting": "[3]; IVM 100 μmol/L alone", "value": "45.7 ± 2.2", "unit": "%"}, {"measurement": "Proliferation rate in per cent compared to untreated medium control", "setting": "[3]; LNCaP, ivermectin 10e-9 mol/L", "value": "91 ± 4", "unit": "%"}, {"measurement": "Proliferation rate in per cent compared to untreated medium control", "setting": "[3]; LNCaP, ivermectin 10e-8 mol/L", "value": "93 ± 5", "unit": "%"}, {"measurement": "Proliferation rate in per cent compared to untreated medium control", "setting": "[3]; LNCaP, ivermectin 10e-7 mol/L", "value": "94 ± 5", "unit": "%"}, {"measurement": "Proliferation rate in per cent compared to untreated medium control", "setting": "[3]; LNCaP, ivermectin 10e-6 mol/L", "value": "99 ± 4", "unit": "%"}, {"measurement": "Effect on proliferation rate compared to untreated control", "setting": "[3]; LNCaP, ivermectin 100 μM alone or in combination", "value": "reduced the proliferation rate"}, {"measurement": "Proliferation rate in per cent compared to untreated medium control", "setting": "[3]; LNCaP, ivermectin 10e-4 mol/L", "value": "8±1", "unit": "%"}]}
